Patent EP0076452A2, “Cephalosporin derivatives, process for their preparation and pharmaceutical compositions containing them” (priority 1981, dated 1983)
In brackets after ≈: the same amount, converted by molar mass. Like-named read-outs stand apart in the source and are kept apart here.

Columns and labels:
[1] = system: Staphylococcus aureus 10 B; experiment: Chemotherapeutic efficacy in vivo against systemic infection in mice (ED50); parameters: species or system Maus; conditions: for ED50: Staphylococcus aureus, 10B, sc, read-out: ED50 Staphylococcus aureus 10 B; for ED50 Staphylococcus aureus 10 B: s.c.
Excerpt: (§1) B. Die chemotherapeutische Wirksamkeit in vivo gegen systemische Infektionen in weiblicher SPF, MF2 Mäusen wurde nach der Methode von Zak, 0. et al., 1979, Drugs Exptl. Clin. Res. 5, 45-59, ermittelt. Die gefundenen ED50-Werte in Milligramm Substanz pro Kilogramm Maus (mg/kg) für eine Anzahl von Mikroorganismen werden für die subcutan (s.c.) applizierten Testverbindungen in der Tabelle 2 angegeben.

Escherichia coli 205 [2] = experiment: as above; parameters: species or system Maus; conditions: for ED50: Escherichia coli, 205, sc, read-out: ED50 Escherichia coli 205
Excerpt: as §1

Proteus rettgeri 856 = experiment: Antibiotic activity in vitro, agar dilution method in DST agar (MIC); assay type: cell-based; conditions: for MIC Proteus rettgeri 856: in vitro
Excerpt: (§2) A. Die antibiotische Aktivität der Testverbindungen in vitro wurde durch die Agarverdünnungsmethode nach Ericsson, H.M., und Sherris, S.C., 1971, Acta Path. Microb. Scand. Section B, Suppl. No. 217, Bd. 1-90, in DST Agar ermittelt. Die gefundenen, das Wachstum der Testorganismen noch hemmenden Minimalkonzentrationen (MIC = minimum inhibiting concentrations) werden in Mikrogramm pro Mililiter ([…]) für die geprüften Verbindungen in der Tabelle 1 angegeben.

Escherichia coli 205 [3] = experiment: as above; assay type: cell-based; conditions: for MIC Escherichia coli 205: in vitro
Excerpt: as §2

[4] = system: Streptococcus pyogenes Aronson; experiment: as above; assay type: cell-based; conditions: for MIC: Streptococcus pyogenes, read-out: MIC Streptococcus pyogenes Aronson
Excerpt: as §2

[5] = systemic infection, female SPF MF2 mice
[6] = s.c., systemic infection, female SPF MF2 mice
[7] = Providencia rettgeri, 856, in vitro, agar dilution, DST Agar, read-out: MIC Proteus rettgeri 856
[8] = Escherichia coli, 205, in vitro, agar dilution, DST Agar, read-out: MIC Escherichia coli 205
[9] = in vitro, agar dilution, DST Agar
[10] = agar dilution, DST Agar, listed as 8

`CON=C(C(=O)NC1C(=O)N2C(C(=O)[O-])=C(C[n+]3cccc(Cl)c3)CSC12)c1coc(N)n1` (stereo not shown) [Testverbindung 16, 3-(3-Chlorpyridiniomethyl)-7ß-[2-(2-amino-4-oxazolyl)-2-Z-methoxyiminoacetylamino]-3-cephem-4-carboxylat] showed an ED50 [1] of 30 mg/kg, an ED50 (Escherichia coli 205 [2]) of 14 mg/kg and an MIC (Proteus rettgeri 856; Providencia rettgeri, 856, read-out: MIC Proteus rettgeri 856) of 0.1 µg/mL (≈ 0.203 µM). For the same compound, the MIC (Escherichia coli 205 [3]; Escherichia coli, 205, read-out: MIC Escherichia coli 205) was 8 µg/mL (≈ 16.2 µM) and the MIC [4] was 0.2 µg/mL (≈ 0.406 µM).

`CC(=O)OCC1=C(C(=O)O)N2C(=O)[C@@H](NC(=O)/C(=N\O)c3coc(N)n3)[C@H]2SC1` [Testverbindung 6] was tested, and the ED50 [1, 5] was 1.35 mg/kg, the ED50 (Escherichia coli 205 [2]; [6]) was 1 mg/kg and the MIC (Proteus rettgeri 856; [7]) was 0.02 µg/mL (≈ 0.047 µM). It also gave an MIC (Escherichia coli 205 [3]; [8]) of 0.1 µg/mL (≈ 0.235 µM).

Compound `CC(C)(O/N=C(\C(=O)N[C@@H]1C(=O)N2C(C(=O)[O-])=C(C[n+]3ccc(C(N)=O)cc3)CS[C@H]12)c1coc(N)n1)C(=O)O` [Testverbindung 10] has an ED50 [1, 5] of over 30 mg/kg, an ED50 (Escherichia coli 205 [2]; [6]) of 1.6 mg/kg and an MIC (Proteus rettgeri 856; [7]) of 0.5 µg/mL (≈ 0.872 µM). For the same compound, the MIC (Escherichia coli 205 [3]; [8]) was 0.5 µg/mL (≈ 0.872 µM) and the MIC [4, 9] was 0.2 µg/mL (≈ 0.349 µM).

With `CC(C)(ON=C(C(=O)NC1C(=O)N2C(C(=O)[O-])=C(C[n+]3ccc(C(N)=O)cc3)CSC12)c1coc(N)n1)C(=O)O` (stereo not shown) [Testverbindung 10] the ED50 [1, 5] was over 30 mg/kg, the ED50 (Escherichia coli 205 [2]; [6]) was over 30 mg/kg and the MIC (Proteus rettgeri 856; [7]) was 0.2 µg/mL (≈ 0.349 µM). For the same compound, the MIC (Escherichia coli 205 [3]; [8]) was 4 µg/mL (≈ 6.97 µM) and the MIC [4, 9] was 0.02 µg/mL (≈ 0.0349 µM).

`CO/N=C(/C(=O)N[C@@H]1C(=O)N2C(C(=O)O)=C(CSc3nnnn3CCN(C)C)CS[C@H]12)c1coc(N)n1` [Testverbindung 4] was tested, and the MIC (Proteus rettgeri 856; [7]) was 2 µg/mL (≈ 3.62 µM), the MIC (Escherichia coli 205 [3]; [8]) was 8 µg/mL (≈ 14.5 µM) and the MIC [4, 9] was 0.05 µg/mL (≈ 0.0905 µM).

`CO/N=C(\C(=O)N[C@@H]1C(=O)N2C(C(=O)O)=C(CSc3nnnn3CCN(C)C)CS[C@H]12)c1coc(N)n1.Cl.Cl` [Testverbindung 3, 3-[1-(2-Dimethylaminoäthyl)-1H-tetrazol-5-ylthiomethyl]-7ß-[2-(2-amino-4-oxazolyl)-2-Z-methoxyiminoacetylamino]-3-cephem-4-carbonsäure-dihydrochlorid] was tested, and the “ED50 Staphylococcus aureus 10 B” value [1, 5] was over 30 mg/kg, the “ED50 Escherichia coli 205” value (Escherichia coli 205 [2]; [6]) was over 30 mg/kg and the “MIC Proteus rettgeri 856” value (Proteus rettgeri 856; agar dilution, DST Agar) was 0,01 µg/ml. The “MIC Escherichia coli 205” value (Escherichia coli 205 [3]; agar dilution, DST Agar) was 0,2 µg/ml and the “MIC Streptococcus pyogenes Aronson” value [4, 9] was 0,05 µg/ml.

For `CON=C(C(=O)NC1C(=O)N2C(C(=O)[O-])=C(C[n+]3ccc(C(=O)O)cc3)CSC12)c1coc(N)n1` (stereo not shown) [Testverbindung 17, 3-(4-Carboxylatpyridiniomethyl)-7ß-[2-(2-amino-4-oxazolyl)-2-Z-methoxyiminoacetylamino]-3-cephem-4-carboxylat-natriumsalz], the ED50 [1, 5] was 5.5 mg/kg, the ED50 (Escherichia coli 205 [2]; [6]) was 2 mg/kg and the MIC (Escherichia coli 205 [3]; [8]) was 0.5 µg/mL (≈ 0.995 µM). The MIC [4, 9] was 0.02 µg/mL (≈ 0.0398 µM).

With `CO/N=C(\C(=O)N[C@@H]1C(=O)N2C(C(=O)OCOC(=O)C(C)(C)C)=C(COC(N)=O)CS[C@H]12)c1coc(N)n1` [Beispiel 18, 3-Carbamoyloxymethyl-7ß-[2-(2-amino-4-oxazolyl)-2-Z-methoxyimino-acetylamino]-3-cephem-4-carbonsäure-pivaloyloxymethylester] the “ED50 Staphylococcus aureus 10 B” value [1, 5] was 8 mg/kg, the “ED50 Escherichia coli 205” value (Escherichia coli 205 [2]; [6]) was over 30 mg/kg and the “MIC Proteus rettgeri 856” value (Proteus rettgeri 856; agar dilution, DST Agar) was 0,01 µg/ml. The “MIC Escherichia coli 205” value (Escherichia coli 205 [3]; agar dilution, DST Agar) was 0,1 µg/ml and the “MIC Streptococcus pyogenes Aronson” value [4, 9] was 0,02 µg/ml.

`CO/N=C(\C(=O)N[C@@H]1C(=O)N2C(C(=O)O)=C(CSc3nnnn3CC(=O)O)CS[C@H]12)c1coc(N)n1` [Testverbindung 2] showed an ED50 [1, 5] of 55 mg/kg, an ED50 (Escherichia coli 205 [2]; [6]) of 0.63 mg/kg and an MIC (Escherichia coli 205 [3]; [8]) of 0.5 µg/mL (≈ 0.927 µM). The MIC [4, 9] was 0.1 µg/mL (≈ 0.185 µM).

In the case of `CO/N=C(\C(=O)N[C@@H]1C(=O)N2C(C(=O)[O-])=C(C[n+]3ccc(C(N)=O)cc3)CS[C@H]12)c1coc(N)n1` [Testverbindung 5], the “ED50 Staphylococcus aureus 10 B” value [1, 5] is reported as 5,5 mg/kg, the “ED50 Escherichia coli 205” value (Escherichia coli 205 [2]; [6]) is reported as 2,4 mg/kg and the “MIC Proteus rettgeri 856” value (Proteus rettgeri 856; agar dilution, DST Agar) is reported as 0,02 µg/ml. The “MIC Escherichia coli 205” value (Escherichia coli 205 [3]; agar dilution, DST Agar) was 0,2 µg/ml.

`CO/N=C(\C(=O)N[C@@H]1C(=O)N2C(C(=O)O)=CCS[C@H]12)c1coc(N)n1` [Testverbindung 14] was tested, and the ED50 [1, 5] was 30 mg/kg, the ED50 (Escherichia coli 205 [2]; [6]) was 9 mg/kg and the MIC (Escherichia coli 205 [3]; [8]) was 0.2 µg/mL (≈ 0.544 µM). The MIC [4, 9] was 0.01 µg/mL (≈ 0.0272 µM).

In the case of `CO/N=C(\C(=O)N[C@@H]1C(=O)N2C(C(=O)[O-])=C(C[n+]3ccc(C(N)=O)cc3)CS[C@H]12)c1coc(N)n1` [Testverbindung 5, 3-(4-Carbamoylpyridiniomethyl)-7β-[2-(2-amino-4-oxazolyl)-2-Z-methoxyiminoacetylamino]-3-cephem-4-carboxylat], the “ED50 Staphylococcus aureus 10 B” value ([1]; systemic infection, female SPF MF2 mice, listed as 8) is reported as over 30 mg/kg, the “ED50 Escherichia coli 205” value (Escherichia coli 205 [2]; s.c., systemic infection, female SPF MF2 mice, listed as 8) is reported as over 30 mg/kg and the “MIC Proteus rettgeri 856” value (Proteus rettgeri 856; [10]) is reported as 1 µg/mL (≈ 1.99 µM). For the same compound, the “MIC Escherichia coli 205” value (Escherichia coli 205 [3]; [10]) was 4 µg/mL (≈ 7.98 µM) and the MIC [4, 9] was 0.02 µg/mL (≈ 0.0399 µM).

In the case of `CC(C)(ON=C(C(=O)NC1C(=O)N2C(C(=O)[O-])=C(C[n+]3ccccc3)CSC12)c1coc(N)n1)C(=O)O` (stereo not shown) [Testverbindung 9, 3-Pyridiniomethyl-7ß-[2-(2-amino-4-oxazolyl)-2-Z-(2-carboxy-prop-2-yloxyimino)-acetylamino]-3-cephem-4-carboxylat-natriumsalz], the ED50 [1, 5] is reported as over 30 mg/kg, the ED50 (Escherichia coli 205 [2]; [6]) is reported as 4.4 mg/kg and the MIC (Proteus rettgeri 856; [7]) is reported as 0.01 µg/mL (≈ 0.0188 µM). It also gave an MIC (Escherichia coli 205 [3]; [8]) of 0.2 µg/mL (≈ 0.377 µM) and an MIC [4, 9] of 0.2 µg/mL (≈ 0.377 µM).

Work on `CO/N=C(\C(=O)N[C@@H]1C(=O)N2C(C(=O)O)=C(CSc3nnnn3CCN(C)C)CS[C@H]12)c1coc(N)n1` [Testverbindung 3] yielded an ED50 [1, 5] of 28 mg/kg, an ED50 (Escherichia coli 205 [2]; [6]) of 1.7 mg/kg and an MIC (Proteus rettgeri 856; [7]) of 0.02 µg/mL (≈ 0.0362 µM). It also gave an MIC (Escherichia coli 205 [3]; [8]) of 0.1 µg/mL (≈ 0.181 µM) and an MIC [4, 9] of 0.02 µg/mL (≈ 0.0362 µM).

For `CO/N=C(\C(=O)N[C@@H]1C(=O)N2C(C(=O)[O-])=C(C[n+]3ccc(C(=O)O)cc3)CS[C@H]12)c1coc(N)n1` [Testverbindung 17], the ED50 [1, 5] was over 30 mg/kg, the MIC (Proteus rettgeri 856; [7]) was 0.02 µg/mL (≈ 0.0398 µM) and the MIC (Escherichia coli 205 [3]; [8]) was 0.5 µg/mL (≈ 0.995 µM). The MIC [4, 9] was 0.05 µg/mL (≈ 0.0995 µM).

`CO/N=C(\C(=O)N[C@@H]1C(=O)N2C(C(=O)O)=C(COC(C)=O)CS[C@H]12)c1coc(N)n1` [Testverbindung 13] gave an ED50 [1, 5] of 5 mg/kg, an ED50 (Escherichia coli 205 [2]; [6]) of 1 mg/kg and an MIC (Escherichia coli 205 [3]; [8]) of 0.1 µg/mL (≈ 0.228 µM). The MIC [4, 9] was 0.01 µg/mL (≈ 0.0228 µM).

`CO/N=C(\C(=O)N[C@@H]1C(=O)N2C(C(=O)O)=C(CSc3nnnn3C)CS[C@H]12)c1coc(N)n1` [Testverbindung 1] was tested, and the ED50 [1, 5] was 12 mg/kg, the ED50 (Escherichia coli 205 [2]; [6]) was 1.5 mg/kg and the MIC (Escherichia coli 205 [3]; [8]) was 0.1 µg/mL (≈ 0.202 µM).

Work on `CC(C)(O/N=C(\C(=O)N[C@@H]1C(=O)N2C(C(=O)[O-])=C(C[n+]3ccccc3)CS[C@H]12)c1coc(N)n1)C(=O)O` [Testverbindung 9] yielded an ED50 [1, 5] of over 30 mg/kg, an ED50 (Escherichia coli 205 [2]; [6]) of 5.6 mg/kg and an MIC (Proteus rettgeri 856; [7]) of 0.2 µg/mL (≈ 0.377 µM). It also gave an MIC (Escherichia coli 205 [3]; [8]) of 1 µg/mL (≈ 1.88 µM) and an MIC [4, 9] of 0.5 µg/mL (≈ 0.942 µM).
